Experimental data: patent US10758627B2, “Peptide-polynucleotide complex for polynucleotide transfection” (Washington University, priority 2015, dated 2020)

Test system: B16 cells stably expressing GFP-PEST
Test: Screening for siRNA knockdown: delivery of GFP siRNA for knockdown of GFP in B16 GFP cells
Format: cell-based
Conditions: for Able to transfect?: peptide/GFP siRNA particle
Procedure: Knockdown of B16 cells stably expressing GFP-PEST allowed quick screening for effective siRNA knockdown of GFP expression because the PEST sequence shortens GFP half-life from 26 to 10 hours. Melittin derivatives were chosen based on modifications designed to decrease cytotoxicity as well as improve interactions with oligonucleotides. These peptides were screened for their ability to deliver GFP siRNA for the knockdown of GFP in B16 GFP cells (Table 1, FIG. 1).
The melittin derivatives were formulated by Genscript (Piscataway, N.J.), dissolved at 10 mM in RNAse/DNAse free water (Sigma, St. Louis, Mo.) and stored in 4 μl aliquots at −80° C. before use. Transfection complexes were prepared by diluting the peptide 1:200 in phosphate buffered saline (PBS, Sigma), vortexed for 30 seconds, followed by addition of the appropriate amount of siRNA (stock concentration of 10 μM in 1× siRNA buffer (Thermo)) and incubated for 40 minutes at 37° C. with shaking in an Eppendorf Thermomixer R. Resulting nanoparticles were analyzed for siRNA incorporation by resolution on a 12% polyacrylamide gel followed by ethidium bromide staining. Dynamic light scattering (DLS) and zeta potential measurements were performed on a Zeta Plus particle sizer (Brookhaven Instruments, Newton, Mass.). Serum stability analysis was performed by incubating freshly formed peptide/siRNA nanoparticles in 10 mg/ml Human Serum Albumin (HSA, Sigma) overnight followed by DLS and zeta potential measurements.
B16F10 and RAW264.7 (ATCC, Manassas, Va.) cell lines can be maintained under standard cell culture conditions (37° C. and 5% CO2 in a humidified incubator) in DMEM (Gibco, Carlsbad, Calif.) supplemented with 10% fetal bovine serum (Gibco). B16F10 cells stably expressing GFP can be produced as follows. B16F10 can be transfected (Lipofectamine 2000, Invitrogen) with a fusion of EGFP (pEGFP-N1, Clontech) and the PEST sequence from mouse ornithine decarboxylase (S421-V461) in pEF6V5HisTOPO (Invitrogen). Cells are selected for four rounds with cell sorting by flow cytometry without antibiotic selection. Typically, an aliquot of cells can be maintained in continuous culture for a month without a noticeable change in EGFP expression level. Human umbilical vein endothelial cells (HUVECs) can be purchased from Lifeline Technologies (Frederick, Md.) and cultured in VascuLife Basal Medium (Lifeline Technologies) supplemented with 5 ng/mL EGF, 5 ng/ml bFGF, 15 ng/mL IGF-1, 50 μg/mL ascorbic acid, 1 μg/mL hydrocortisone hem isuccinate, 0.75 U/mL Heparin Sulfate, 10 mM L-glutamine, 2% fetal bovine serum in accordance with manufacturer instructions.
For transfection, cells can be plated in 6 well plates 12 hours before transfection and cultured under standard cell culture conditions. Peptide/siRNA nanoparticles are prepared and incubated with cells for 4 hours in a final volume of 1 mL Optimem I (Gibco) or appropriate media supplemented with 10% FBS. Transfections are scaled accordingly for cells plated in 12 well plates based on cell culture surface area. After transfection, cells are washed twice with PBS and incubated with standard cell culture medium for another 24-72 hours before analysis. Lipofectamine 2000 can be used in accordance with the manufacturer's protocol. Briefly, Lipofectamine 2000 is diluted in Optimem I to a final concentration of 8.4 μg/ml and incubated at room temperature for 15 minutes. siRNA is then added to the diluted lipid and incubated for another 40 minutes before dilution to 1 mL total volume with Optimem I for transfection. Suitable eGFP siRNA can be purchased from Sigma. siGENOME mouse MAPK9 siRNA1, siGENOME mouse STAT3 siRNA2, and siGENOME human STAT3 siRNA2 gene specific siRNAs can be purchased from Dharmacon (Lafayette, Colo.). Scrambled siRNA can be purchased from Qiagen (Valencia, Calif.).

[1] = charge ratio (+/−) 6:1 (peptide/siRNA 28:1 to 62:1 depending on peptide)
[2] = charge ratio (+/−) 12:1 (peptide/siRNA 56:1 to 124:1 depending on peptide)
[3] = charge ratio (+/−) 24:1 (peptide/siRNA 112:1 to 248:1 depending on peptide)
[4] = ratio of peptide:polynucleotide between 50:1 and 200:1

Compound	Able to transfect? [1]	Able to transfect? [2]	Able to transfect? [3]	ability to transfect (ratio of 50:1)	ability to transfect (ratio of peptide:polynucleotide less than 50:1)	toxicity to cells in the tested concentration range (B16 GFP cells, concentration range of the screen)	GFP knockdown [4]	ability to transfect [4]
VLTTGLPALISWIKRKRQHRWRRRR [Peptide 5RWRH]	Yes	No	No	did not work	able to transfect			
VLTTGLPALISWIKRKRQQRWRRRR [Peptide 5RWR]	No	No	No					
VLTTGLPALISWIKRKRQQC [Peptide 5C]	No	No	No					
CC[C@H](C)[C@H](NC(=O)CN)C(=O)NCC(=O)N[C@@H](C)C(=O)N[C@H](C(=O)N[C@@H](CC(C)C)C(=O)N[C@@H](CCCCN)C(=O)N[C@H](C(=O)N[C@@H](CC(C)C)C(=O)N[C@H](C(=O)N[C@H](C(=O)NCC(=O)N[C@@H](CC(C)C)C(=O)N1CCC[C@H]1C(=O)N[C@@H](C)C(=O)N[C@@H](CC(C)C)C(=O)N[C@H](C(=O)N[C@@H](CO)C(=O)N[C@@H](Cc1c[nH]c2ccccc12)C(=O)N[C@H](C(=O)N[C@@H](CCCCN)C(=O)N[C@@H](CCCNC(=N)N)C(=O)N[C@@H](CCCCN)C(=O)N[C@@H](CCCNC(=N)N)C(=O)N[C@@H](CCC(N)=O)C(=O)N[C@@H](CCC(N)=O)C(N)=O)[C@@H](C)CC)[C@@H](C)CC)[C@@H](C)O)[C@@H](C)O)C(C)C)C(C)C [Melittin]	No	Toxic	Toxic			too toxic		
VLTTGLPALISWIRRRHRRHC [Peptide 5RHH]	Yes	Yes	Yes				exhibited GFP knockdown	able to transfect
